Source: article PMC5598073, “A novel and efficient fungal delignification strategy based on versatile peroxidase for lignocellulose bioconversion” (Biotechnology for Biofuels, 2017)
Where two headings read alike, the source gives them in different places. Blank lines part the entries; values can stand above or below the molecule they belong to.

Legend:
VP [1] = test system: T1, VP; assay: spectrophotometric oxidation, […] nm; format: biochemical, Physisporinus vitreus; details: 50 mM malonate pH 4.5, 0.1 mM H2O2, with or without 1 mM MnSO4 (not told per substrate); read-out: K m (mol L^-1) / VP
T1 construct: native secreted enzyme purified from solid corn stover cultures; single band

Lac [2] = test system: T2, Lac; assay: spectrophotometric oxidation, […] nm; format: biochemical, Physisporinus vitreus; details: 50 mM malonate pH 4.5; read-out: K m (mol L^-1) / Lac
T2 construct: native secreted enzyme purified from solid corn stover cultures; single band

Lac [3] = details: read-out: K m (mol L^-1) / Lac; 50 mM malonate pH 4.5
VP [4] = details: read-out: K m (mol L^-1) / VP; 50 mM malonate pH 4.5, 0.1 mM H2O2, with or without 1 mM MnSO4 (not told per substrate)
VP [5] = test system: T1, VP; assay: spectrophotometric oxidation, […] nm; format: biochemical, Physisporinus vitreus; details: 50 mM malonate pH 4.5, 0.1 mM H2O2, with or without 1 mM MnSO4 (not told per substrate); read-out: K m (mol L^-1) / VP; remark: listed apart in the source
Lac [6] = test system: T2, Lac; assay: spectrophotometric oxidation, […] nm; format: biochemical, Physisporinus vitreus; details: 50 mM malonate pH 4.5; read-out: K m (mol L^-1) / Lac; remark: listed apart in the source
VP [7] = test system: T1, VP; assay: spectrophotometric oxidation, […] nm; format: biochemical, Physisporinus vitreus; details: 50 mM malonate pH 4.5, 0.1 mM H2O2, with or without 1 mM MnSO4 (not told per substrate)
VP [8] = test system: T1, VP; assay: spectrophotometric oxidation, […] nm; format: biochemical, Physisporinus vitreus; details: 50 mM malonate pH 4.5, 0.1 mM H2O2, with or without 1 mM MnSO4 (not told per substrate); remark: listed apart in the source

SMILES: Cc1cccc(C)c1O [2,6-DMP]
Km (VP [1]): 44 µM | Km (Lac [2]): 280 µM

Km (Lac [3]): 13 µM | Km (VP [4]): 35 µM
SMILES: CCn1c(=NN=c2sc3cc(S(=O)(=O)O)ccc3n2CC)sc2cc(S(=O)(=O)O)ccc21 [ABTS]

Km (VP [5]): 130 µM | Km (Lac [6]): 900 µM
SMILES: COc1ccccc1O [Guaiacol]

Km (VP [7]): 14.2 µM
SMILES: Nc1c(N=Nc2ccc(S(=O)(=O)CCOS(=O)(=O)O)cc2)c(S(=O)(=O)O)cc2cc(S(=O)(=O)O)c(N=Nc3ccc(S(=O)(=O)CCOS(=O)(=O)O)cc3)c(O)c12 [RB5]

SMILES: COc1ccc(CO)cc1OC [VA]
Km (VP [8]): 213 µM
